Strand notation (5' to 3'): a small letter for the sugar, then the base; units joined by * are phosphorothioate-linked, units joined directly phosphodiester-linked; [ ] holds rarer units or linkages, { } end groups; capitals alone tell only the bases. e = 2'-O-(2-methoxyethyl) (MOE); {TEG} = Teg-GalNAc conjugate; [5mC] = 5-methylcytosine
Assays:
[1] = test system: human ABCB11 mRNA; experiment: Liver-humanized FRG knockout mice, human ABCB11 mRNA in liver by qPCR; assay type: in vivo
Description: (§1) In a first in vivo study, female liver-humanized FRG® (Fah^−/−; Rag2^−/−; Il2rg^−/−) knockout mice (Yecuris™) were used to assess the efficacy of the human ABCB11 regRNA-targeting ASOs CO-3986 and CO-4535 in the context of cholestasis. The mice were grouped evenly based on albumin and body weight.
A. First Study. Two groups of five mice were dosed with GalNAc3—CO-7378 (CO-3986 conjugated to GalNAc3) or GalNAc3—CO-7379 ([…]) respectively, control via subcutaneous (SC) injection on Days 0 and 7. One group of five mice was dosed with PBS control via SC injection on Days 0 and 7. […] The serum (two tubes for each animal, 15 μL and 25 μL, for each timepoint) was analyzed using LC-MS (Creative Proteomics) to assess bile acids and 7αC4 levels. The remaining samples collected were analyzed for total serum bile acid levels using a commercial kit. […]
(§2) Frozen liver pieces were pulverized on dry ice and RNA extracted using TRIzol™ reagent. cDNA was generated and analyzed using qPCR to detect ABCB11 mRNA levels and other genes of interest as described above. Serum 7αC4 levels were detected using LC-MS (Creative Proteomics). Total serum bile acids were measured using the Total Bile Acid Fluorometric Assay Kit (Cell BioLabs). Liver bile acids were measured using the Total Bile Acid Fluorometric Assay Kit.

[2] = test system: bile acids; experiment: Liver-humanized FRG knockout mice, liver and serum bile acids; assay type: in vivo, mouse
Description: as §1
A. First Study. Two groups of five mice were dosed with GalNAc3—CO-7378 (CO-3986 conjugated to GalNAc3) or GalNAc3—CO-7379 ([…]) respectively, control via subcutaneous (SC) injection on Days 0 and 7. One group of five mice was dosed with PBS control via SC injection on Days 0 and 7. A fourth group of five mice was treated with ursodeoxycholic acid (UDCA) via intraperitoneal (IP) injection on Days 14-21. […] On Day 21, the animals were euthanized for terminal harvest after fasting overnight and >350 μL of whole blood was processed to serum. 100 μL of whole blood was collected in the same manner as the previous bleeds, prior to euthanasia and final exsanguination. Harvested livers were perfused with cold PBS with the left lobe and remnant liver frozen separately after bile salt collection. A piece of the ileum tissue was removed and flushed with PBS and snap-frozen. The serum (two tubes for each animal, 15 μL and 25 μL, for each timepoint) was analyzed using LC-MS (Creative Proteomics) to assess bile acids and 7αC4 levels. The remaining samples collected were analyzed for total serum bile acid levels using a commercial kit.
(§3) B. Second Study. In a second in vivo study was conducted to assess the ability of CO-11202 (CO-12367 conjugated with GalNAc3). Mice were dosed with […] on Days 0 and 7 via SC injection. One group of five mice were dosed with PBS control via SC injection on Days 0 and 7. One group of five mice received 10 mg/kg of obeticholic acid (OCA) via oral gavage daily for 21 days. Fasting blood was collected from the mice on Days 0, 7, 14 and 21 (collection performed prior to any SC injections) and processed to serum to analyze bile acid levels. On Day 21, mice were euthanized and livers and ileum tissue harvested and processed as described above.
as §2

[3] = test system: mouse Abcb11 mRNA; experiment: Liver-humanized FRG knockout mice, mouse Abcb11 mRNA in liver; assay type: in vivo; settings: second study, liver-humanized FRG knockout mice (FIG. 15A)
Description: as §3, §2

[4] = test system: CYP7A1 mRNA; experiment: ASO treatment of primary human hepatocytes (PHH), CYP7A1 mRNA by RT-qPCR normalized to B2M; assay type: cell-based
Description: Primary human hepatocytes (PHH) were thawed using Lonza Human Cryopreserved Hepatocyte Thawing Medium and plated in 96-well collagen-coated plates (5.5-6.0×10^4 cells per well). Four hours later, the media was replaced with sterile-filtered QualGro™ Hepatocyte Culture Medium (BioIVT) containing antibiotic supplement, 0.3 mg/ml Matrigel® matrix (Corning®), and ASO at the desired concentration (e.g., 1.25 μM, 2.5 μM, 5 μM, or 10 μM). […] Plates were frozen at-80° C. during cell lysis. After thawing, total RNA was isolated using the Qiagen RNEasy kit as instructed by manufacturer. cDNA (random-primed) was synthesized from 10 μl of RNA using the LifeTech High Capacity cDNA Reverse Transcription kit. 2 μl of cDNA was used for reverse transcription-quantitative PCR (RT-qPCR) analyses using standard Taqman” reagents from Applied Biosystems™ to measure ABCB11 and CYP7A1 gene expression. Gene expression data was normalized to the housekeeper gene, beta-2-microglobulin (B2M).
ASOs targeting ABCB11 regRNA enhance bile acid efflux in vitro. Levels of cholesterol 7 alpha-hydroxylase (CYP7A1) mRNA (or the enzymatic activity of its protein) can be used to track changes in bile acid synthesis in the liver since the CYP7A1 protein is the first and rate-limiting step in the conversion of cholesterol to bile acids (see, e.g., Chiang and Ferrel (2020) Liver Res. 4 (2): 47-63). […] Conversely, when bile acid levels reach high levels, this gene is actively down regulated. These changes are mediated by farnesoid X receptor (FXR), a sensor of bile acid levels, and the master regulator of intracellular bile acid concentrations. CYP7A1 mRNA can therefore be used as a surrogate for monitoring changes in hepatic bile acids in response to ASO treatment. Accordingly, an ASO that successfully increases ABCB11 expression would be expected to promote increased bile acid efflux, thus reducing bile acid levels in the cell. In a wild-type (non-disease) setting, this reduction promotes a compensatory increase in CYP7A1 to restore normal levels.

[5] = test system: human ABCB11 mRNA; experiment: ASO treatment of primary human hepatocytes (PHH), ABCB11 mRNA by RT-qPCR normalized to B2M; assay type: cell-based; set-up: ABCB11 mRNA, dose titration: unit of the concentration uncertain
How it was run: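 Plated primary human hepatocytes were treated 4 h post-thaw with ASO (e.g., 1.25–10 μM; initial screen 5 μM) in medium containing 0.3 mg/ml Matrigel for 72 hrs. Total RNA was reverse-transcribed and ABCB11 mRNA measured by Taqman RT-qPCR, normalized to B2M, with fold change versus untreated PHHs.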

[6] = test system: bile acid efflux in PHHs; experiment: In vitro biliary clearance assay (B-CLEAR) in PHHs, d8-TCA by LC-MS; assay type: cell-based, human
Description: The ACCULIVER™ Human Biliary Clearance Kit (also known as the B-CLEAR® assay; BioIVT) was used to assess bile acid efflux in PHHs after ASO treatment. On Day 0, 4×10^5 cells were plated in 24-well collagen-coated plates and QualGro medium containing […] matrix and ASO was added 4 hrs. later. On Day 2, medium was refreshed. On Day 3, cells from some wells were harvested for RNA analysis using 350 μl Buffer RLT lysis buffer, and lysates frozen at −80° C. for later RNA extraction. On Day 4, cells in the remaining wells had medium refreshed. On Day 6, the assay was performed according to the manufacturer's instructions. Briefly, cells were conditioned with Plus or Minus Buffers provided with the assay for 10 minutes, followed by addition of deuterium-labelled sodium taurocholate (d8-TCA) for 10 mins. Cells were washed 3 times, and frozen after the final wash. Analysis of d8-TCA was performed using liquid chromatography-mass spectrometry (LC-MS) (BioIVT). Calculations of bile acid clearance were made from the resulting LC-MS data according to the manufacturer's instructions.

| Substance | human ABCB11 expression ([1]; second study, 10 mg/CO-12367 SC on Days 0 and 7) | serum bile acid levels ([2]; second study, liver-humanized FRG knockout mice (FIG. 15B)) | mouse Abcb11 expression [3] | human ABCB11 expression ([1]; first study, SC on Days 0 and 7) | expression of CYP7A1 mRNA, dose response ([4]; PHHs (FIG. 3B)) | CYP7A1 expression ([4]; PHHs of the B-CLEAR experiment (FIG. 7B)) | ABCB11 expression (duplicate wells, qRT-PCR) ([5]; PHHs of the B-CLEAR experiment, dose response (FIG. 7A)) | upregulation of ABCB11 mRNA ([5]; PHHs, Day 3, normalized to untreated PHHs) | ABCB11 mRNA, dose titration ([5]; PHHs, CO-3986 and CO-4529 tested at 2.5 (unit uncertain), 5 μM, and 10 μM) | ABCB11 mRNA FC (5 μM ASO vs. UNT) ([5]; primary human hepatocytes, 5 μM ASO, normalized to untreated PHHs (UNT)) [fold change] | intracellular and extracellular bile acid levels ([6]; 5 μM and 10 μM ASO, bile acid efflux assay (FIG. 7C)) | efflux of bile acids from the intracellular compartment to the bile cannuliculi ([6]; B-CLEAR assay) | liver bile acid efflux ([2]; first study, liver-humanized FRG knockout mice) | ratio of liver bile acid (BA) to serum BA ([2]; first study, liver-humanized FRG knockout mice (FIG. 9B)) | intracellular bile acids ([2]; first study, liver-humanized FRG knockout mice, ASO-treated mice) |
| --- | --- | --- | --- | --- | --- | --- | --- | --- | --- | --- | --- | --- | --- | --- | --- |
| CO-12367: GalNAc3 conjugate counterpart of CO-11202, dosed SC in liver-humanized mice (antisense eT*eG*eTeT*eT*eT*eG*e[5mC]eT*eT*eG*eG*eTe[5mC]*eA*eA*eG*eAeG*eG-{TEG}) | increased human ABCB11 expression | decrease in serum bile acid levels | without affecting mouse Abcb11 expression | – | – | – | – | – | – | – | – | – | – | – | – |
| CO-3986: ASO targeting paRNA RR63 of human ABCB11 (antisense eT*eG*eT*eT*eT*eT*eG*e[5mC]*eT*eT*eG*eG*eT*e[5mC]*eA*eA*eG*eA*eG*eG) | – | – | – | increased human ABCB11 expression | increased expression of CYP7A1 mRNA in a dose-dependent manner | upregulated | increased ABCB11 expression | approximately 1.5 fold | dose-dependent increase | 1.27 | reduced intracellular and extracellular bile acid levels | increased | increased efflux of bile acid | decreased ratio of liver bile acid (BA) to serum BA | lower levels of intracellular bile acids |

From US20250320496A1, “MODULATION OF ABCB11 GENE TRANSCRIPTION USING ANTISENSE OLIGONUCLEOTIDES TARGETING REGULATORY RNAS” (CAMP4 Therapeutics Corporation, priority 2022, published 2025)
